Test results taken from article PMC5390467, “Novel lead structures with both Plasmodium falciparum gametocytocidal and asexual blood stage activity identified from high throughput compound screening” (Malaria Journal, 2017).
“And” between values parts separate entries of the source, which are not always exact repeats. Identical values can stand only once.

Key:
[1] = target: T1, RSK2(Kin.Dom.2-C-terminal) (Homo sapiens, UniProt P51812); assay: Kinome scan profile; assay type: binding; details: 10 μM
T1 construct: RSK2(Kin.Dom.2-C-terminal); purchased DiscoverX (KINOMEscan)

SNRK = target: T2, SNRK (Homo sapiens, UniProt Q9NRH2); assay: Kinome scan profile; assay type: binding; details: 10 μM
T2 construct: purchased DiscoverX (KINOMEscan)
T2 sequence (Q9NRH2 1-765): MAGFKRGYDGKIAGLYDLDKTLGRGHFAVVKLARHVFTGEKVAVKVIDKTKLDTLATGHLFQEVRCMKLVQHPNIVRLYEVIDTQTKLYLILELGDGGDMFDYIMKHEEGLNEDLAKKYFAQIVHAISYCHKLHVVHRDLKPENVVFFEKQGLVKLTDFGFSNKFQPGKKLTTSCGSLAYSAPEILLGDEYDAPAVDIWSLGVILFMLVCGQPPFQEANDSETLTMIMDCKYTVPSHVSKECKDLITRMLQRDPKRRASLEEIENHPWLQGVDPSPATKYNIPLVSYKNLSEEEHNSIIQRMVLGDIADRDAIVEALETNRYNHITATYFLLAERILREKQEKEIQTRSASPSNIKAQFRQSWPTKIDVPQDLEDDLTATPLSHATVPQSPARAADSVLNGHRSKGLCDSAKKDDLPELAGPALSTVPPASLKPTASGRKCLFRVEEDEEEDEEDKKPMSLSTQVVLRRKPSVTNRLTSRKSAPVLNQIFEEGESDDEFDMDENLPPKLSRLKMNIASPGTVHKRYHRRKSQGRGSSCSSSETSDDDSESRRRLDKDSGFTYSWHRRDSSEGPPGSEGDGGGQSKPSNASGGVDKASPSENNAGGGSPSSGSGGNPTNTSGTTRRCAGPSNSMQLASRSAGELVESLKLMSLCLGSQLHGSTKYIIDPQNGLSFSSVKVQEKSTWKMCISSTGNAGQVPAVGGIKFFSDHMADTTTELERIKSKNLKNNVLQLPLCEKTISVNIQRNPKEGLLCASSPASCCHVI

[2] = tested on: P. falciparum NF54 gametocytes; assay: gametocyte viability assay (AlamarBlue); assay type: cell-based, Plasmodium falciparum
Description: Asexual parasites of P. falciparum strain NF54 were cultured as described previously. Briefly, parasites were maintained in RPMI 1640 medium containing 10% positive human serum + erythrocytes (5% haematocrit), 2.5% sodium bicarbonate and 11 µg/mL gentamicin at 37 °C with 5% CO2, 5% O2 and 90% N2. Gametocyte cultures were set up at 0.1% parasitaemia and on days 9–10 treated with 50 mM N-acetylglucosamine (NAG) to block further asexual growth. Stage III–V gametocytes were isolated by Percoll density gradient centrifugation on day 12 and returned to culture for 24 h before being used in the assay. At the time of the assay over 73% of the gametocytes were stage IV or V (Additional file 1). HepG2 cells (ATCC, cat. no. 77400) were cultured in 175-cm^2 tissue culture flasks with 30 ml growth medium at 37 °C in a 5% CO2 and 5% O2 humidified atmosphere. Growth medium was made with Dulbecco’s Modified Eagle Medium with 10% fetal bovine serum (FBS). Growth medium was replaced every other day and cells were passaged at 75% confluence.
Compounds from the Sytravon library (a retired Pharma screening collection that contains a diversity of novel small molecules, with an emphasis on medicinal chemistry-tractable scaffolds) were obtained as powder samples and dissolved in DMSO as […] stock solutions. Compound screening experiments were performed as previously described. In the primary screen, two concentrations for each compound were tested. No technical and biological replicates were involved. In the follow-up confirmation studies, three biological replicates were tested for each compound in both parasite assays. The positive control was 46 µM of Torin 2 and negative control was DMSO. Briefly, 2.5 μL/well incomplete medium was dispensed into each well of 1536-well plates using the Multidrop Combi followed by 23 nL compound transferring using the NX-TR Pintool (WAKO Scientific Solutions, San Diego, CA). Then, 2.5 μL/well of gametocytes was dispensed with a seeding density of 20,000 cells/well using the Multidrop Combi. The assay plates were incubated for 72 h at 37 °C with 5% CO2. After addition of 5 μL/well of 2X AlamarBlue dye (Life Technologies, cat. no. DAL1100), the plates were incubated for 24 h at 37 °C with 5% CO2 and then were read in a fluorescence detection mode (Ex = 525 nm, Em = 598 nm) on a ViewLux plate reader (PerkinElmer).

[3] = target: T3, JAK2(JH1domain-catalytic) (Homo sapiens, UniProt O60674); assay: Kinome scan profile; assay type: binding; details: 10 μM
T3 construct: JAK2(JH1domain-catalytic); purchased DiscoverX (KINOMEscan)

[4] = target: T4, TYK2(JH1domain-catalytic) (Homo sapiens, UniProt P29597); assay: Kinome scan profile; assay type: binding; details: 10 μM
T4 construct: TYK2(JH1domain-catalytic); purchased DiscoverX (KINOMEscan)
T4 sequence (P29597 897-1176 limits assumed): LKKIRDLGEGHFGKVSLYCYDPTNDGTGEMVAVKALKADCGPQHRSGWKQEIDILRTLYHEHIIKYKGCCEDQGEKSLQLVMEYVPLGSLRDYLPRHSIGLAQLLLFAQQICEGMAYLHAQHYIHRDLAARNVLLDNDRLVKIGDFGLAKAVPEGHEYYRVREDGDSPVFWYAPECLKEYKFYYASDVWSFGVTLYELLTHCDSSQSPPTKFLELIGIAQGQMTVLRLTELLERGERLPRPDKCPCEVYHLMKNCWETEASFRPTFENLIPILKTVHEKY

MAP3K3 = target: T5, MAP3K3 (Homo sapiens, UniProt Q99759); assay: Kinome scan profile; assay type: binding; details: 10 μM
T5 construct: purchased DiscoverX (KINOMEscan)
T5 sequence (Q99759 1-626): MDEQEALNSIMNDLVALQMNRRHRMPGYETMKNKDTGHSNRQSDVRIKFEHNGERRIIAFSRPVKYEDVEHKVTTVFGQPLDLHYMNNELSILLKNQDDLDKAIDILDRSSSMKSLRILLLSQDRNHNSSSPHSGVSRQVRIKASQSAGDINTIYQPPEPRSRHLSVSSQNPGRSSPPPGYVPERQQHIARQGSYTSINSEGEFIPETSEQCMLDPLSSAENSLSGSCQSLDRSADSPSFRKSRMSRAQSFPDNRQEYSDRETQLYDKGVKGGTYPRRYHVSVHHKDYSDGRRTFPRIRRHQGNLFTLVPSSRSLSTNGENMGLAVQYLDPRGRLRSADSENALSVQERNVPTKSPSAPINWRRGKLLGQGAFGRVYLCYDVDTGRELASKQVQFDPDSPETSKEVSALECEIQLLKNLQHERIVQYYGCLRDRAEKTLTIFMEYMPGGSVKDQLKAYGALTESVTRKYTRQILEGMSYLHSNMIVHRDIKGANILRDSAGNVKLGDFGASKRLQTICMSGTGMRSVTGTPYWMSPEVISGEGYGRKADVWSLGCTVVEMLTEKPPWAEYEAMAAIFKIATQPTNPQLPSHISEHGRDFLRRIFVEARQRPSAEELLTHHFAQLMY

T1 sequence (P51812 422-679 limits assumed): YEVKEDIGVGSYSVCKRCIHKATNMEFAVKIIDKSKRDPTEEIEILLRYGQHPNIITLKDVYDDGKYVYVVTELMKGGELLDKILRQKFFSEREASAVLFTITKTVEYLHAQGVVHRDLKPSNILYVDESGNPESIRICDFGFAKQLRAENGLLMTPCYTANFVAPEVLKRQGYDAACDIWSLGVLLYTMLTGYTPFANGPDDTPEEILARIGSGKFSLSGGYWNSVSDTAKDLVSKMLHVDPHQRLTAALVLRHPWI
T3 sequence (O60674 849-1124 limits assumed): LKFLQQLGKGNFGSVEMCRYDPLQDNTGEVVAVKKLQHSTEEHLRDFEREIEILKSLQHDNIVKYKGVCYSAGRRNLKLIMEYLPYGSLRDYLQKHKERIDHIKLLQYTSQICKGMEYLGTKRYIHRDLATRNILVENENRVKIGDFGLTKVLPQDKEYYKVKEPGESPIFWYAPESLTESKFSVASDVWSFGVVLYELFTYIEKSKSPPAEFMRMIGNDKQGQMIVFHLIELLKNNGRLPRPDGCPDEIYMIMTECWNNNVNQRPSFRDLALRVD

SMILES: CCN1CCN(Cc2c(O)ccc3c(=O)c(Oc4ccccc4C(C)C)c(C(F)(F)F)oc23)CC1 [NCGC00100599]
- % Control, RSK2(Kin.Dom.2-C-terminal) [1]: 29 % Control
- % Control, SNRK (SNRK): 27 % Control
- IC50 ([2]; P. falciparum NF54 stage III-V gametocytes, 72 h, AlamarBlue, mean ± SD, n = 3): 4.18 µM and 4.34 µM
- Asexual/Gametocyte ([2]; ratio of asexual IC50 to gametocyte IC50): 0.08
- % Control, JAK2(JH1domain-catalytic) [3]: 31 % Control
- % Control, TYK2(JH1domain-catalytic) [4]: 19 % Control
- % Control, MAP3K3 (MAP3K3): 34 % Control
